Reference: ChEMBL document CHEMBL1201862, “PubChem BioAssay data set” (2004)
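Interpolation was linear, between the two tested concentrations surrounding the appropriate level; five concentrations were tested over 48 hours in 96-well plates. GI50 is the concentration that inhibits growth by half.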 Active and inactive are the calls of the source. Cut-off read from the data, not from the text of the source: active = GI50 up to about 1.1 µM and inactive = higher.

Columns and labels:
Assay in all cases: inhibition of tumour cell growth, NCI panel, 48 h
[1] = tested on: 786-0
[2] = tested on: A498
[3] = tested on: CCRF-CEM
[4] = tested on: HL-60
[5] = tested on: K562
[6] = tested on: LXFL 529
[7] = tested on: M14
[8] = tested on: RPMI-8226
[9] = tested on: SF-268
[10] = tested on: SK-MEL-28
[11] = tested on: SK-OV-3
[12] = tested on: SNB-19
[13] = tested on: UACC-62
[14] = tested on: LOX IMVI
[15] = tested on: SK-MEL-2
[16] = tested on: HOP-92
[17] = tested on: DU-145
[18] = tested on: MDA-N
[19] = tested on: NCI/ADR-RES
[20] = tested on: SR

| SMILES | GI50 [1] | GI50 [2] | GI50 [3] | GI50 [4] | GI50 [5] | GI50 [6] | GI50 [7] | GI50 [8] | GI50 [9] | GI50 [10] | GI50 [11] | GI50 [12] | GI50 [13] | GI50 [14] | GI50 [15] | GI50 [16] | GI50 [17] | GI50 [18] | GI50 [19] | GI50 [20] |
| --- | --- | --- | --- | --- | --- | --- | --- | --- | --- | --- | --- | --- | --- | --- | --- | --- | --- | --- | --- | --- |
| CCOc1ccc(NC(=O)CC2Sc3ccccc3NC2=O)cc1 (configuration not stated) | 19.2 µM (inactive) | > 100 µM (inactive) | > 100 µM (inactive) | > 100 µM (inactive) | 65.2 µM (inactive) | > 100 µM (inactive) | > 100 µM (inactive) | 65.5 µM (inactive) | 53 µM (inactive) | > 100 µM (inactive) | 41.3 µM (inactive) | 54.1 µM (inactive) | > 100 µM (inactive) | – | – | – | – | – | – | – |
| CC(=O)Nc1ccc(-c2nnc(SCC(=O)Nc3ccc(Cl)cc3Cl)o2)cc1 | 16.1 µM (inactive) | 40.8 µM (inactive) | 25.4 µM (inactive) | 27.8 µM (inactive) | 28.8 µM (inactive) | 19.3 µM (inactive) | 29.3 µM (inactive) | – | 44.7 µM (inactive) | > 100 µM (inactive) | 64.3 µM (inactive) | 22.6 µM (inactive) | – | 27.8 µM (inactive) | > 100 µM (inactive) | – | – | – | – | – |
| COC(=O)N/N=C(\C)CC(=O)Nc1ccc(Cl)cc1 | > 100 µM (inactive) | > 100 µM (inactive) | > 100 µM (inactive) | > 100 µM (inactive) | > 100 µM (inactive) | > 100 µM (inactive) | > 100 µM (inactive) | > 100 µM (inactive) | > 100 µM (inactive) | > 100 µM (inactive) | > 100 µM (inactive) | – | > 100 µM (inactive) | > 100 µM (inactive) | > 100 µM (inactive) | > 100 µM (inactive) | – | – | – | – |
| CN(C)C(=Nc1nc(N(C)C)s[s+]1)N(C)C | > 100 µM (inactive) | > 100 µM (inactive) | > 100 µM (inactive) | > 100 µM (inactive) | > 100 µM (inactive) | > 100 µM (inactive) | > 100 µM (inactive) | > 100 µM (inactive) | > 100 µM (inactive) | > 100 µM (inactive) | > 100 µM (inactive) | > 100 µM (inactive) | > 100 µM (inactive) | – | > 100 µM (inactive) | > 100 µM (inactive) | – | – | – | – |
| O=C1C=C(Nc2ccccc2C(=O)CC(=O)C(=O)Nc2cccc([N+](=O)[O-])c2)c2ccccc2C1=O | 29.4 µM (inactive) | > 100 µM (inactive) | 3.3 µM (inactive) | 3.38 µM (inactive) | 17.7 µM (inactive) | 32.4 µM (inactive) | 41.5 µM (inactive) | 5.58 µM (inactive) | 22.2 µM (inactive) | 46 µM (inactive) | > 100 µM (inactive) | 23.3 µM (inactive) | 26.6 µM (inactive) | 4.82 µM (inactive) | 56 µM (inactive) | 37.1 µM (inactive) | – | – | – | – |
| O=c1[nH]nc2c3n[nH]c(=O)n3c3ccccc3n12 | > 100 µM (inactive) | 47.1 µM (inactive) | > 100 µM (inactive) | – | > 100 µM (inactive) | > 100 µM (inactive) | > 100 µM (inactive) | > 100 µM (inactive) | > 100 µM (inactive) | > 100 µM (inactive) | > 100 µM (inactive) | > 100 µM (inactive) | > 100 µM (inactive) | > 100 µM (inactive) | > 100 µM (inactive) | 63.7 µM (inactive) | – | – | – | – |
| OC12CC/C(=N/OCc3ccccc3)CC1c1ccccc12 (configuration not stated) | > 100 µM (inactive) | – | > 100 µM (inactive) | > 100 µM (inactive) | > 100 µM (inactive) | > 100 µM (inactive) | > 100 µM (inactive) | > 100 µM (inactive) | > 100 µM (inactive) | > 100 µM (inactive) | > 100 µM (inactive) | > 100 µM (inactive) | > 100 µM (inactive) | > 100 µM (inactive) | > 100 µM (inactive) | – | – | – | – | – |
| CCCn1c2ccccc2c2ccc3c(c21)C(=O)C=CC3=O | 1.84 µM (inactive) | > 10 µM (inactive) | 0.204 µM (active) | 0.938 µM (active) | 0.561 µM (active) | – | 2.18 µM (inactive) | 2.12 µM (inactive) | > 6.12 µM (inactive) | 2.2 µM (inactive) | > 10 µM (inactive) | > 10 µM (inactive) | 4.13 µM (inactive) | > 10 µM (inactive) | > 4.78 µM (inactive) | 1.85 µM (inactive) | 9.79 µM (inactive) | 2.65 µM (inactive) | 2.9 µM (inactive) | 0.719 µM (active) |
| C=CC/C(C(=O)OC)=C(/C(=O)OC)N(CCC)CCC | > 100 µM (inactive) | > 100 µM (inactive) | 36.1 µM (inactive) | 23 µM (inactive) | 35.8 µM (inactive) | – | > 100 µM (inactive) | 41.9 µM (inactive) | > 100 µM (inactive) | > 100 µM (inactive) | > 100 µM (inactive) | > 100 µM (inactive) | > 100 µM (inactive) | > 100 µM (inactive) | > 100 µM (inactive) | 64 µM (inactive) | > 100 µM (inactive) | > 100 µM (inactive) | > 100 µM (inactive) | 16.4 µM (inactive) |
| O=S(=O)(c1ccccc1)c1cccc2c1NCCC2 | 78.7 µM (inactive) | > 100 µM (inactive) | 46.8 µM (inactive) | 21.8 µM (inactive) | 35.6 µM (inactive) | – | 75.5 µM (inactive) | 56.1 µM (inactive) | 72.1 µM (inactive) | 36.7 µM (inactive) | > 10 µM (inactive) | 39.2 µM (inactive) | > 10 µM (inactive) | 35.6 µM (inactive) | > 10 µM (inactive) | 28.8 µM (inactive) | 59.4 µM (inactive) | 47.2 µM (inactive) | 38.5 µM (inactive) | 38.3 µM (inactive) |
| CC(C)[Si]1(C(C)C)OCC2OC(n3cnc4c(N)ncnc43)C(N)C2O[Si](C(C)C)(C(C)C)O1 (configuration not stated) | 5.11 µM (inactive) | 13.9 µM (inactive) | 9.29 µM (inactive) | 3.78 µM (inactive) | 3.51 µM (inactive) | – | 8.45 µM (inactive) | 2.22 µM (inactive) | 12 µM (inactive) | 25.9 µM (inactive) | 24 µM (inactive) | 4.88 µM (inactive) | 10.1 µM (inactive) | 5.75 µM (inactive) | 6.22 µM (inactive) | 11.8 µM (inactive) | 11.9 µM (inactive) | 6.32 µM (inactive) | 5.21 µM (inactive) | 2.42 µM (inactive) |
| Nc1nccc(Nc2ccc(S(N)(=O)=O)cc2)n1 | > 100 µM (inactive) | > 100 µM (inactive) | > 100 µM (inactive) | > 100 µM (inactive) | > 100 µM (inactive) | – | > 100 µM (inactive) | > 100 µM (inactive) | > 100 µM (inactive) | > 100 µM (inactive) | > 100 µM (inactive) | > 100 µM (inactive) | > 100 µM (inactive) | > 100 µM (inactive) | > 100 µM (inactive) | > 100 µM (inactive) | > 100 µM (inactive) | > 100 µM (inactive) | > 100 µM (inactive) | > 100 µM (inactive) |
| Nc1nc(N)c(N=Nc2ccc([As](=O)(O)O)c(O)c2)c(N)n1 | 20 µM (inactive) | 83.6 µM (inactive) | 1.9 µM (inactive) | 2.96 µM (inactive) | 11.1 µM (inactive) | – | 35.6 µM (inactive) | 3.21 µM (inactive) | 55.8 µM (inactive) | > 100 µM (inactive) | 36.4 µM (inactive) | 43.2 µM (inactive) | 31.5 µM (inactive) | 6.67 µM (inactive) | > 21.1 µM (inactive) | 35.3 µM (inactive) | 7.5 µM (inactive) | 0.839 µM (active) | > 100 µM (inactive) | 0.834 µM (active) |
| CN(CCCNC(=O)c1c2ccc3ccccc3c2nn1C)CCCNC(=O)c1c2ccc3ccccc3c2nn1C | 11.6 µM (inactive) | 6.9 µM (inactive) | 8.18 µM (inactive) | 10.4 µM (inactive) | 3.48 µM (inactive) | – | 2.05 µM (inactive) | 1.95 µM (inactive) | 11.5 µM (inactive) | 2.3 µM (inactive) | 15 µM (inactive) | 14.9 µM (inactive) | 1.87 µM (inactive) | 3.15 µM (inactive) | 5.04 µM (inactive) | 3.21 µM (inactive) | 17.5 µM (inactive) | 2.96 µM (inactive) | 13.6 µM (inactive) | 3 µM (inactive) |
| Cc1ccc(S(=O)(=O)OC2C3OC(C)(C)OC3OC2C(c2cc(O)c3c(c2O)C(=O)c2ccccc2C3=O)c2cc(O)c3c(c2O)C(=O)c2ccccc2C3=O)cc1 (configuration not stated) | > 10 µM (inactive) | > 10 µM (inactive) | > 10 µM (inactive) | > 10 µM (inactive) | > 10 µM (inactive) | – | > 10 µM (inactive) | > 10 µM (inactive) | > 10 µM (inactive) | > 10 µM (inactive) | > 10 µM (inactive) | > 10 µM (inactive) | > 10 µM (inactive) | > 10 µM (inactive) | > 10 µM (inactive) | > 10 µM (inactive) | > 10 µM (inactive) | > 10 µM (inactive) | > 10 µM (inactive) | > 10 µM (inactive) |
| CC(=O)c1c(C)cc2cccc(OC3OC(CO)C(O)C(O)C3O)c2c1O.CC1OC(O)C(O)C(O)C1O (configuration not stated) | > 100 µM (inactive) | > 100 µM (inactive) | > 100 µM (inactive) | > 100 µM (inactive) | > 100 µM (inactive) | – | > 100 µM (inactive) | > 100 µM (inactive) | > 100 µM (inactive) | > 100 µM (inactive) | > 100 µM (inactive) | > 100 µM (inactive) | > 100 µM (inactive) | > 100 µM (inactive) | > 100 µM (inactive) | > 100 µM (inactive) | > 100 µM (inactive) | > 100 µM (inactive) | > 100 µM (inactive) | > 100 µM (inactive) |
